In general, EC50 refers to the concentration that produces a half-maximal response.

Four compounds from article PMC6261997, “Synergistic enzymatic and bioorthogonal reactions for selective prodrug activation in living systems” (Nature Communications, 2018) can be followed below.

The test system of one data set is CCC-HEH-2 cells. Nature of the data set: MTT cell viability / cytotoxicity assay, CCC-HEH-2 cells. As to conditions: Homo sapiens; 72 h cytotoxicity, MTT; Activated Dox: cells pre-incubated with 500 μM 2 for 6 h, then TCO-Dox 72 h; read-out: EC50, CCC-HEH-2. The format is cell-based. On the procedure:
(§1) Cells were plated in flat-bottom 96-well plates at a density of 3 × 10^3 cells per well. After 12 h of cell attachment, the cell culture medium was replaced with 100 μL of pre-warmed media containing the compounds at different concentrations. After 24–72 h of incubation, cell proliferation was assessed by the MTT assay. A fresh mixture of 10 μL of thiazolyl blue tetrazolium bromide (MTT) and 90 μL of medium were freshly added to each well. After incubation for 4 h, the medium was gently removed. The formazan crystals that formed were dissolved in 110 μL of DMSO, and the absorbance was subsequently measured with a plate reader (Perkin Elmer) at 490 nm. EC50 values were calculated using Origin software. To measure the cytotoxicity of 2, HeLa cells, HUVECs, Saos-2 cells and CCC-HEH-2 cells were incubated with 100 μL of 1–500 μM 2 for 24 h, and then, cell viability was determined. To measure the cytotoxicity of TCO-Dox or Dox, HeLa cells, HUVECs, Saos-2 cells or CCC-HEH-2 cells were incubated with 200 μL of 0.001–10 μM TCO-Dox or Dox for 72 h, and the cell viability was determined. To determine the cytotoxicity of activated Dox, HeLa cells, HUVECs, Saos-2 cells or CCC-HEH-2 cells were pre-incubated with 100 μL of 500 μM 2 for 6 h, and then, 2 was removed and 200 μL of 0.0001–10 μM TCO-Dox was added for 72 h of incubation, and cell viability was determined. […]

In the next data set the test system is HUVECs. Nature of the data set: MTT cell viability / cytotoxicity assay, HUVECs. The format is cell-based. As to conditions: Homo sapiens, HUVEC, 72 h cytotoxicity, MTT; Activated Dox: cells pre-incubated with 500 μM 2 for 6 h, then TCO-Dox 72 h; read-out: EC50, HUVECs. Here is the method: as §1, with “[…],” for “Saos-2 cells or CCC-HEH-2 cells were pre-incubated with 100 μL of 500 μM 2 for 6 h,”
(§2) Prodrug activation efficacy in cells: Cells were plated on flat bottom 96-well plates at a
(§3) density of 3x10^3 cells per well. After 12 h attachment, cells were incubated with 100 µL
(§4) 500 µM of 2 for 6 h before removing 2 and the addition of 200 µL 0.0001-10 µM of […]

The next data set has as its system Saos-2 cells. Nature of the data set: MTT cell viability / cytotoxicity assay, Saos-2 cells. The format is cell-based. On the procedure: as §1
Prodrug activation efficacy in cells: Cells were plated on flat bottom 96-well plates at a density of 3x10^3 cells per well. After 12 h attachment, cells were incubated with 100 µL 500 µM of 2 for 6 h before removing 2 and the addition of 200 µL 0.0001-10 µM of TCO-Dox. Cells were further incubated for 72 h before measuring the viability by the MTT […]
Clonogenic assay of cells in vitro: Clonogenic assay was performed according to the standard protocol.6 2×10^5 attached cells were treated with 500 µM of 2 for 6 h in culture dishes. Cells were then detached, re-suspended in cultural medium and counted accurately. The cell suspension was diluted into the desired seeding concentration and cells were seeded in 6-well plates at a density of 200 cells per well for CCC-HEH-2 and 400 cells per well for HeLa, Saos-2 and HUVECs. After incubation for 10 days, the cultural medium was removed and cells were rinsed carefully with PBS. 2 mL of a mixture of 6.0% (vol/vol) glutaraldehyde and 0.5% (wt/vol) crystal violet was added and kept for 30 min.
The glutaraldehyde crystal violet mixture was removed carefully. The colonies were rinsed with water and dried in normal air at room temperature. The number of the colonies was counted using a stereomicroscope.
When untreated cells are plated as a single-cell suspension at low densities, they will grow to colonies. The plating efficiency (PE) is the ratio of the number of colonies to the […]
(Supplementary Equation 1)
The number of colonies that arise after treatment of cells, expressed in terms of PE, is called the surviving fraction (SF): […]

The test system of data set [1] is HeLa cells. The data set can be described thus: MTT cell viability / cytotoxicity assay, HeLa cells. The format is cell-based. On the procedure:
as §1, with “[…],” for “Saos-2 cells or CCC-HEH-2 cells were pre-incubated with 100 μL of 500 μM 2 for 6 h,”
as §2, §3, §4

A short description of data set [2]: Systemic toxicity in treated mice (body weight, death, organ histology).
Experimental: When the tumour volume reached approximately 80–100 mm^3, the mice were divided into five groups (n = 8) and used for therapeutic studies. Mice in the treatment group received an i.v. injection of 50 mg kg^−1 2 and a subsequent 30 mg kg^−1 TCO-Dox after a 2-h interval. In the control groups, mice were received 50 mg kg^−1 2, 30 mg kg^−1 TCO-Dox, 5 mg kg^−1 Dox or saline. The mice received three treatment courses on day 0, day 3 and day 6. Tumour size and body weight were measured every 2 days. After 14 days, the mice were sacrificed. Tumours and main organs were obtained for histological examination with HE staining.
Effect of the dosage of Dox to the mice body weight.
The arrows on x-axis marked the administrations of Dox (n= 8).
indicate standard deviation.
Histological examination of heart, liver, spleen, lung and
Organs were harvested after treatment at day 14 and stained by hematoxylin and
For a further data set, the system named is HeLa tumours. The data set can be described thus: Tumour inhibition test, subcutaneous HeLa xenograft. The format is in vivo, BALB/c nude mice. As to conditions: i.v., three courses (day 0, 3, 6); 50 mg kg^−1 2, 30 mg kg^−1 TCO-Dox, 5 mg kg^−1 Dox, or 50 mg kg^−1 2 then 30 mg kg^−1 TCO-Dox after 2 h. Here is the method: All animal studies were performed in accordance with the Institutional Animal Use and Care Regulations approved by the National Institutes of Health Clinical Center/Animal Care and Use Committee (NIH CC/ACUC). Athymic female nude mice (5–6 weeks old) were purchased from Beijing Huafukang Bioscience Co., Ltd., and raised in a specific-pathogen-free barrier facility. Tumour-bearing mice were established by subcutaneously injecting a suspension of 10^6 HeLa cells per mouse into the front flank of each nude mouse.
After 14 days, the mice were sacrificed.

Data set [3] relates to HeLa cells. The data set can be described thus: Intracellular Tz accumulation by fluorescence liberation from TCO-CMR, HeLa cells. In kind it is cell-based. As to conditions: 50 or 500 μM Tz-COOH for 6 h, then 50 μM TCO-CMR 1-24 h. On the procedure: Next, we tested the intracellular accumulation of Tz via EISA in an attempt to differentiate cancer cells from normal cells. First, we investigated the accumulation of Tz in HeLa cells and HUVECs over time via fluorescence liberation from TCO-CMR (Fig. 3a). […] The cells were then washed with PBS thoroughly before the addition of an excessive amount of TCO-CMR (100 μL, 50 μM), and the reaction of TCO-CMR with the intracellular accumulated Tz was allowed to proceed for up to 24 h (Supplementary Fig. 8). In this experimental setting, the total liberated fluorescence was proportional to the amount of 3 accumulated inside the cells. […] Therefore, the optimized concentration of 2 (e.g. 500 μM) and incubation time (e.g. 6 h) were selected to differentiate between cancer and normal cells according to liberated fluorescence intensity (Fig. 3c). This differentiation was dependent on the considerably different phosphatase activity between these cell lines (Supplementary Fig. 11), allowing EISA to specifically occur in cancer cells as opposed to normal cells.
All cells were purchased from the National Infrastructure of Cell Line Resource (Beijing, China). HeLa cells, HUVECs and CCC-HEH-2 cells were cultured in a humidified CO2 (5%) incubator at 37 °C in DMEM supplemented with 10% foetal bovine serum (FBS, Gibco) and 1% Pen Strep (PS, Gibco). Saos-2 cells were cultured in a humidified CO2 (5%) incubator at 37 °C in McCoy’s 5A medium supplemented with 10% FBS and 1% PS. Cells were plated in flat-bottom 96-well plates (Corning) at a density of 10^4 cells per well and allowed to attach for 12 h. Then, the culture medium was replaced with 100 μL of pre-warmed medium containing 2 at different concentrations (100–500 μM). After incubation for different durations (1–24 h), the cells were rinsed with PBS, and then 100 μL of 50 μM TCO-CMR (dissolved in PBS) was added for real-time detection of the fluorescence intensity of coumarin in a plate reader (Perkin Elmer).

A short description of data set [4]: Self-assembly and hydrogelation on addition of alkaline phosphatase (ALP). In kind it is physicochemical. As to conditions: after addition of 10 U mL^−1 ALP (dephosphorylated product). Here is the method:
The synthesis of the assembly precursor (NapK(Tz)YpF, 2, Fig. 2a) was straightforward (see Supplementary Methods for a detailed protocol). Because KYF was determined to be an excellent self-assembly motif in a tri-peptide census survey, we constructed our assembling molecules based on this sequence. The conjugation of a strong π–π stacking moiety, namely, a naphthalene group, to the N terminus may further enhance the self-assembly potential of this molecule. Phosphorylation on tyrosine (Y) enabled the responsiveness of this motif to phosphatase. All of these components were sequentially conjugated via typical Fmoc-based solid-phase peptide synthesis (SPPS) to yield NapKYpF (1). The capability of self-assembly and hydrogelation of 1 was confirmed by the addition of 10 U mL^−1 alkaline phosphatase (ALP) into a solution of 1 (Supplementary Fig. 1). The dephosphorylated product of 1 formed transparent hydrogels with a network of uniform nanofibres (Supplementary Fig. 2), and the critical hydrogelation concentration was 1.0 mg mL^−1. The ε-amine of Lys on 1 was conjugated with the Tz derivative Tz-COOH (2-(4-(6-methyl-1,2,4,5-tetrazin-3-yl)phenyl) acetic acid) via an NHS-mediated ester–amide exchange reaction to yield 2. […] Upon the addition of ALP (10 U mL^−1) into the solution of 2, a transparent purple hydrogel was formed within 1 h (Fig. 2b inset), and the critical hydrogelation concentration was 1.0 mg mL^−1 (Supplementary Fig. 3). Similar to the formation of a typical hydrogel, investigation by transmission electron microscopy (TEM) confirmed the existence of numerous uniform nanofibres, each with a diameter of approximately 12 nm, which was close to that of hydrogel 1 (Fig. 2b).

Data set [5] in a line: UPLC-MS/MS pharmacokinetic analyses in tumour, liver and plasma. In kind it is in vivo, BALB/c nude mice. As to conditions: within 1 h after i.v. 50 mg kg^−1 2.
Experimental: For in vivo prodrug activation, mice received an i.v. injection of 50 mg kg^−1 2 and a subsequent 30 mg kg^−1 TCO-Dox after a 2-h interval. After different time intervals, blood samples were collected from the tail veins, and then, the tumours and livers were harvested for UPLC-MS/MS analysis.
UPLC-MS/MS analyses: UPLC-MS/MS metabolomic analyses were performed using a
multiple reaction-monitoring mode (MRM). Data acquisition and processing were performed using LabSolutions version 5 software. Measurements were carried out at
Dox, solvent A consisted of 0.1% formic acid in water and solvent B consisted of 0.1% formic acid in mass spectrometric grade acetonitrile; (2) for compound TCO-Dox, solvent A consisted of 100% water and solvent B consisted of 100% mass spectrometric grade acetonitrile. Injection volume was 2 or 10 L. The mass spectrometer was interfaced with the liquid chromatograph using an electrospray ion source. The nitrogen nebulizing gas flow was set at 10 L min-1 and the drying gas flow at 15 mL min-1. 4500 V were used for the interface voltage. The temperature of the block heater was maintained at 400 °C and the one of the desolvation line at 250 °C. The MRM transitions were
Dox. The collision gas used was argon at 230 kPa. The dwell time was set to 100 msec and the pause time to 3 msec.
Sample preparation: blood samples were collected from the tail vein of mice. Plasma […]

For the compound `COc1cccc2c1C(=O)c1c(O)c3c(c(O)c1C2=O)C[C@@](O)(C(=O)CO)C[C@@H]3O[C@H]1C[C@H](N)[C@H](O)[C@H](C)O1` [Dox, doxorubicin, reference compound], the EC50 in the data set on CCC-HEH-2 cells is 84 nM; in the data set with HUVECs it was 133 nM; with Saos-2 cells (Homo sapiens, SAOS-2, 72 h cytotoxicity, MTT, Activated Dox: cells pre-incubated with 500 μM 2 for 6 h, then TCO-Dox 72 h, read-out: EC50, Saos-2), 425 nM; in the data set with HeLa cells [1] (Homo sapiens, HeLa, 72 h cytotoxicity, MTT, Activated Dox: cells pre-incubated with 500 μM 2 for 6 h, then TCO-Dox 72 h, read-out: EC50, HeLa) it was 732 nM. Moreover, in the data set with Saos-2 cells (ratio of 72 h EC50 values), the “EC50 ratio CCC-HEH-2/Saos-2” value worked out at 0.198. The “EC50 ratio HUVECs/Saos-2” value with Saos-2 cells (ratio of 72 h EC50 values) is on record as 0.313. In the data set on HeLa cells [1] (ratio of 72 h EC50 values), the “EC50 ratio CCC-HEH-2/HeLa” value is recorded as 0.115. The “EC50 ratio HUVECs/HeLa” value in the data set with HeLa cells [1] (ratio of 72 h EC50 values) is on record as 0.182. Moreover, the death of mice entry is “the mice began to die eleven day” in [2] (6.0 mg kg-1 Dox), “the mice began to die six” in [2] (7.5 mg kg-1 Dox) and “the mice died within five days” in data set [2] (15 mg kg-1 Dox). In addition, the tumour growth entry with HeLa tumours is recorded as “tumour growth could be inhibited”.

Turning to `Cc1nnc(-c2ccc(CC(=O)O)cc2)nn1` [Tz-COOH, 2-(4-(6-methyl-1,2,4,5-tetrazin-3-yl)phenyl) acetic acid, reference compound], the “accumulation in HeLa cells” value with HeLa cells [3] is reported as “hardly accumulated”.

In data set [4], `NCCCCC(NC(=O)Cc1ccc2ccccc2c1)C(=O)NC(Cc1ccc(OP(=O)(O)O)cc1)C(=O)NC(Cc1ccccc1)C(=O)O` (stereo not drawn) [compound 1, NapKYpF] displayed a critical hydrogelation concentration of 1.0 mg/mL.

In the case of `Cc1nnc(-c2ccc(CC(=O)NCCCCC(NC(=O)Cc3ccc4ccccc4c3)C(=O)NC(Cc3ccc(O)cc3)C(=O)NC(Cc3ccccc3)C(=O)O)cc2)nn1` (stereo not drawn) [compound 3, NapK(Tz)YF], the concentration in tumours entry in [5] was “increased significantly within 1 h”.
